In ChEMBL document CHEMBL5137052, “Identification of dihydroquinolizinone derivatives with cyclic ether moieties as new anti-HBV agents” (Eur J Med Chem, 2022):

How the values were obtained:
Hepatitis B virus [1] = assay: Antiviral activity against HBV infected in human HepG2.2.15 cells assessed as reduction in intracellular core HBV DNA level incubated for 6 days by qPCR analysis; format: functional, organism-based; settings: HepG2.2.15, 144 h
Hepatitis B virus [2] = assay: Antiviral activity against HBV infected in human HepG2.2.15 cells assessed as reduction in HBeAg level in cellular supernatant by luminescence based microplate reader analysis; format: functional, organism-based
Hepatitis B virus [3] = assay: Antiviral activity against HBV infected in human HepG2.2.15 cells assessed as reduction in HBsAg level in cellular supernatant by luminescence based microplate reader analysis; format: functional, organism-based
[4] = Cytotoxicity against human HepG2.2.15 cells assessed as reduction in cell viability incubated for 6 days by CCK-8 assay; format: toxicity, cell-based, HepG2 2.2.15; settings: for CC50 at 144 h: time 6 day
[5] = Neurotoxicity against NGF induced rat PC-12 cells assessed as morphological changes by measuring appearance of shrunken cells at 10 uM incubated for 48 hrs by phase contrast microscopic analysis; format: toxicity, cell-based; settings: pc-12, 48 h
[6] = Cmax in BALB/c mouse at 10 mg/kg, po measured up to 24 hrs by HPLC analysis; format: ADME, organism-based; design: dose 10 mg/kg, time < 24 hrs, route po; settings: in vivo
[7] = Tmax in BALB/c mouse at 10 mg/kg, po measured up to 24 hrs by HPLC analysis; format: ADME, organism-based; settings: in vivo
[8] = Elimination half life in BALB/c mouse at 10 mg/kg, po measured up to 24 hrs by HPLC analysis; format: ADME, organism-based; settings: in vivo, read-out: beta t1/2 (converted)
[9] = MRT (0 to t) in BALB/c mouse at 10 mg/kg, po measured up to 24 hrs by HPLC analysis; format: ADME, organism-based; settings: in vivo
[10] = AUC (0 to t) in BALB/c mouse at 10 mg/kg, po measured up to 24 hrs by HPLC analysis; format: ADME, organism-based; design: dose 10 mg/kg, time < 24 hrs, route po; settings: in vivo

SMILES | IC50 (Hepatitis B virus [1]) [nM] | IC50 (Hepatitis B virus [2]) [nM] | CC50 at 144 h [4] [nM] | IC50 (Hepatitis B virus [3]) [nM] | further results
COCCCOc1cc2c(cc1OC)-c1cc(=O)c(C(=O)O)cn1[C@@H](C(C)C)C2 |  |  |  |  | EC50 (Hepatitis B virus [1]): 75.8 nM; EC50 (Hepatitis B virus [2]): 3270 nM; EC50 (Hepatitis B virus [3]): 928 nM
COc1cc2c(cc1OCc1ccc3c(c1)OCO3)C[C@H](C(C)C)n1cc(C(=O)O)c(=O)cc1-2 |  |  |  |  | EC50 (Hepatitis B virus [1]): 124 nM; EC50 (Hepatitis B virus [2]): 2030 nM; EC50 (Hepatitis B virus [3]): 239 nM
COc1cc2c(cc1OCC1COc3cccc(Cl)c3O1)CC(C(C)C)n1cc(C(=O)O)c(=O)cc1-2 (stereo not given) | 4.3 | 53.2 | 11600 | 3.4 | 
COc1cc2c(cc1OC[C@H]1COc3cccnc3O1)C[C@@H](C(C)C)n1cc(C(=O)O)c(=O)cc1-2 |  |  |  |  | EC50 (Hepatitis B virus [1]): 1.4 nM; Activity [5]: Toxic; EC50 (Hepatitis B virus [2]): 104 nM; EC50 (Hepatitis B virus [3]): 1.4 nM
COc1cc2c(cc1OCC1COc3cc(Cl)ccc3O1)CC(C(C)C)n1cc(C(=O)O)c(=O)cc1-2 (stereo not given) | 9.1 | 39.5 | 10600 | 3.7 | 
COc1cc2c(cc1OCC1COc3ccc(Cl)cc3O1)CC(C(C)C)n1cc(C(=O)O)c(=O)cc1-2 (stereo not given) | 5.7 | 86.5 | 11600 | 7.7 | 
COc1cc2c(cc1OCC1COc3ccc(F)cc3O1)CC(C(C)C)n1cc(C(=O)O)c(=O)cc1-2 (stereo not given) | 5.7 | 15.4 | 34700 | 0.2 | Cmax [6]: 1440 nM; Tmax [7]: 60 min; half-life [8]: 101 min; MRT last at 24 h [9]: 112 min; AUC(0-t) at 24 h [10]: 3.38 µM·h
COc1cc2c(cc1OCCC1COc3ccccc3O1)CC(C(C)C)n1cc(C(=O)O)c(=O)cc1-2 (stereo not given) | 1.2 | 16.4 | 11600 | 18.4 | 
COc1cc2c(cc1OCC1COc3cccc(F)c3O1)CC(C(C)C)n1cc(C(=O)O)c(=O)cc1-2 (stereo not given) | 37.2 | 57.3 | 21500 | 1.6 | 
COc1cc2c(cc1OCC1COc3cc(C)ccc3O1)CC(C(C)C)n1cc(C(=O)O)c(=O)cc1-2 (stereo not given) | 10.1 | 179 | 11600 | 3.5 | 
COc1cc2c(cc1OCC1COc3cccnc3O1)CC(C(C)C)n1cc(C(=O)O)c(=O)cc1-2 (stereo not given) | 0.5 | 94.9 | > 50000 | 1.9 | Cmax [6]: 2910 nM; Tmax [7]: 30 min; half-life [8]: 43.2 min; MRT last at 24 h [9]: 52.8 min; AUC(0-t) at 24 h [10]: 2.38 µM·h
COc1cc2c(cc1OCC1COCCO1)CC(C(C)C)n1cc(C(=O)O)c(=O)cc1-2 (stereo not given) | 18.2 | > 1000 | > 50000 | 5.1 | 
COc1ccc(COc2cc3c(cc2OC)-c2cc(=O)c(C(=O)O)cn2C(C(C)C)C3)cc1OC (stereo not given) | 11.2 | 158 | > 50000 | 1.1 | 
COc1ccc2c(c1)OC(COc1cc3c(cc1OC)-c1cc(=O)c(C(=O)O)cn1C(C(C)C)C3)CO2 (stereo not given) | 8.1 | > 1000 | 31900 | 1.7 | 
COc1cc2c(cc1OCC1COc3c(Cl)cccc3O1)CC(C(C)C)n1cc(C(=O)O)c(=O)cc1-2 (stereo not given) | 4.2 | 21 | 11600 | 1.2 | 
COc1cc2c(cc1OCC1COc3ccc(C)cc3O1)CC(C(C)C)n1cc(C(=O)O)c(=O)cc1-2 (stereo not given) | 17.9 | 328 | 34700 | 7.5 | 
COc1cc2c(cc1OC[C@@H]1COc3cccnc3O1)C[C@@H](C(C)C)n1cc(C(=O)O)c(=O)cc1-2 |  |  |  |  | EC50 (Hepatitis B virus [1]): 86.3 nM; Activity [5]: Toxic; EC50 (Hepatitis B virus [2]): 70 nM; EC50 (Hepatitis B virus [3]): 6.3 nM

SMILES | IC50 (Hepatitis B virus [1]) [nM] | IC50 (Hepatitis B virus [2]) [nM] | CC50 at 144 h [4] [nM] | IC50 (Hepatitis B virus [3]) [nM] | further results
COc1cc2c(cc1OCC1CCCO1)CC(C(C)C)n1cc(C(=O)O)c(=O)cc1-2 (stereo not given) | 1.6 | 27 | > 50000 | 509 | Cmax [6]: 8840 nM; Tmax [7]: 19.8 min; half-life [8]: 39.6 min; MRT last at 24 h [9]: 65.4 min; AUC(0-t) at 24 h [10]: 10.4 µM·h
COc1cc2c(cc1OCC1COc3cc(Br)ccc3O1)CC(C(C)C)n1cc(C(=O)O)c(=O)cc1-2 (stereo not given) | 36.9 | > 1000 | 34700 | 34.3 | 
COc1cc2c(cc1OC[C@@H]1COc3cccnc3O1)C[C@H](C(C)C)n1cc(C(=O)O)c(=O)cc1-2 |  |  |  |  | EC50 (Hepatitis B virus [1]): 882 nM; EC50 (Hepatitis B virus [2]): 3190 nM; EC50 (Hepatitis B virus [3]): 882 nM
COc1cc2c(cc1OC(C)c1ccc3c(c1)OCO3)CC(C(C)C)n1cc(C(=O)O)c(=O)cc1-2 (stereo not given) | 181 | > 1000 | > 50000 | 1.2 | 
COc1cc2c(cc1OC[C@@H]1CCCO1)C[C@H](C(C)C)n1cc(C(=O)O)c(=O)cc1-2 |  |  |  |  | EC50 (Hepatitis B virus [1]): 119 nM; EC50 (Hepatitis B virus [2]): 2010 nM; EC50 (Hepatitis B virus [3]): 1.2 nM
COc1cc2c(cc1OC[C@H]1CCCO1)C[C@@H](C(C)C)n1cc(C(=O)O)c(=O)cc1-2 |  |  |  |  | EC50 (Hepatitis B virus [1]): 2.1 nM; Activity [5]: Toxic; EC50 (Hepatitis B virus [2]): 220 nM; EC50 (Hepatitis B virus [3]): 5.1 nM
COc1cc2c(cc1OCC1COc3ccccc3O1)CC(C(C)C)n1cc(C(=O)O)c(=O)cc1-2 (stereo not given) | 12.1 | 2 |  | 1.5 | IC50 at 6 days [4]: 21500 nM
COc1cc2c(cc1OCC1COc3c(F)cccc3O1)CC(C(C)C)n1cc(C(=O)O)c(=O)cc1-2 (stereo not given) | 29 | 20.6 | 16700 | 1.5 | 
COc1cc2c(cc1OC[C@H]1CCCO1)C[C@H](C(C)C)n1cc(C(=O)O)c(=O)cc1-2 |  |  |  |  | EC50 (Hepatitis B virus [1]): 37.5 nM; EC50 (Hepatitis B virus [2]): 3380 nM; EC50 (Hepatitis B virus [3]): 3.5 nM
COc1cc2c(cc1OCC1COc3ccc([N+](=O)[O-])cc3O1)CC(C(C)C)n1cc(C(=O)O)c(=O)cc1-2 (stereo not given) | 16.5 | 18.2 | 50000 | 4.6 | 
COc1cc2c(cc1OCC1CCOC1)CC(C(C)C)n1cc(C(=O)O)c(=O)cc1-2 (stereo not given) | 0.6 | 56.2 | > 50000 | 1.1 | 
COc1cc2c(cc1OC[C@H]1COc3cccnc3O1)C[C@H](C(C)C)n1cc(C(=O)O)c(=O)cc1-2 |  |  |  |  | EC50 (Hepatitis B virus [1]): 3080 nM; EC50 (Hepatitis B virus [2]): 12800 nM; EC50 (Hepatitis B virus [3]): 3080 nM
COc1cc2c(cc1OCC1COc3cc(F)ccc3O1)CC(C(C)C)n1cc(C(=O)O)c(=O)cc1-2 (stereo not given) | 15.5 | 22.7 | 11600 | 18.4 | 
COc1cc2c(cc1OCC1COc3ccc(Br)cc3O1)CC(C(C)C)n1cc(C(=O)O)c(=O)cc1-2 (stereo not given) | 13.4 | 127 | 11600 | 24.5 | 
COc1cc2c(cc1OCc1ccc3c(c1)OCCO3)CC(C(C)C)n1cc(C(=O)O)c(=O)cc1-2 (stereo not given) | 13.4 | 10.2 | 34700 | 0.2 | 
COc1cc2c(cc1OCc1ccc3c(c1)OCO3)CC(C(C)C)n1cc(C(=O)O)c(=O)cc1-2 (stereo not given) | 5 | 66.7 | > 50000 | 1.6 | Cmax [6]: 2180 nM; Tmax [7]: 49.8 min; half-life [8]: 82.2 min; MRT last at 24 h [9]: 101 min; AUC(0-t) at 24 h [10]: 4.46 µM·h
COc1ccc2c(c1)OCC(COc1cc3c(cc1OC)-c1cc(=O)c(C(=O)O)cn1C(C(C)C)C3)O2 (stereo not given) | 52 | > 1000 | > 50000 | 403 | 
